The test deals with rumen liquor. As to the kind of experiment: In vitro test for methane production (modified Hohenheim Forage value Test, HFT). The settings on record: for Effect on Methanogenesis (% compared to control) / Effect on VFA production (% compared to control): artificial TMR, 8 hours at 39° C.; for Effect on Methanogenesis (% compared to control) / Effect on VFA production (% compared to control) / VFA profile (as percentage of total VFA) Ace. / VFA profile (as percentage of total VFA) But. / VFA profile (as percentage of total VFA) Prop.: average of three experiments; for VFA profile (as percentage of total VFA) Ace.: acetate; for VFA profile (as percentage of total VFA) But.: butyrate; for VFA profile (as percentage of total VFA) Prop.: propionate.

In the case of `CC[C@@]1([C@@H]2O[C@@H]([C@H]3O[C@@](O)(CO)[C@H](C)C[C@@H]3C)C[C@@H]2C)CC[C@H]([C@]2(C)CC[C@]3(C[C@H](O)[C@@H](C)[C@@H]([C@@H](C)[C@@H](OC)[C@H](C)C(=O)O)O3)O2)O1` [Monensin, monensin, reference compound], under “Dose 0.01 % DM”, the “Effect on Methanogenesis (% compared to control)” value is −23%, the “Effect on VFA production (% compared to control)” value is recorded as −6%, the “VFA profile (as percentage of total VFA) Ace.” value is 56 percentage of total VFA and the “VFA profile (as percentage of total VFA) But.” value is recorded as 6 percentage of total VFA. Besides, the “VFA profile (as percentage of total VFA) Prop.” value (Dose 0.01 % DM) is recorded as 38 percentage of total VFA.

For the molecule `O=[N+]([O-])OCCCO` [3-nitrooxy propanol, 3-Nitrooxypropanol], where the note is “3-nitrooxy propanol at 0.01% DM when combined with monensin”, the “effect on the acetate/propionate ratio (in words)” value is “further additive effect”. In addition, the “methane inhibition (in words)” value (3-nitrooxy propanol used at 0.01% DM) is “maximal methane inhibition”. In addition, under “Dose 0.005 % DM”, the “Effect on Methanogenesis (% compared to control)” value is recorded as −21%, the “Effect on VFA production (% compared to control)” value is recorded as −3%, the “VFA profile (as percentage of total VFA) Ace.” value is on record as 57 percentage of total VFA and the “VFA profile (as percentage of total VFA) But.” value is given as 7 percentage of total VFA. Besides, the “VFA profile (as percentage of total VFA) Prop.” value (Dose 0.005 % DM) was 36 percentage of total VFA. Moreover, under “Dose 0.01 % DM”, the “Effect on Methanogenesis (% compared to control)” value is on record as −97%, the “Effect on VFA production (% compared to control)” value is −13%, the “VFA profile (as percentage of total VFA) Ace.” value is given as 50 percentage of total VFA and the “VFA profile (as percentage of total VFA) But.” value was 8 percentage of total VFA. Also, the “VFA profile (as percentage of total VFA) Prop.” value (Dose 0.01 % DM) was 42 percentage of total VFA.
